Measured values reported in US7355063B2, “Shogaol compound and tyrosinase activity inhibitor comprising the compound” (Toagosei Co., Ltd., priority 2003, dated 2008).
Each block holds one compound with its values, some of them ahead of it.

How the values were obtained:
mushroom tyrosinase [1] = test: Tyrosinase activity inhibition test using L-dopa as substrate (Test Examples 1 and 2, absorbance at 475 nm); format: biochemical
Experimental: Using the compound 7 obtained in Example 2, the compound 13 obtained in Example 5, a mixture of the compound 18 and the compound 19 (existing molar ratio 45:55) obtained in Example 7, and arbutin (manufactured by Tokyo Kasei Kogyo Co., Ltd.) as a comparative control, a tyrosinase activity inhibition test was carried out using L-dopa as a substrate.
The specific test procedures are as follows. • (1) 1.80 ml of a phosphate buffer prepared by dissolving 1.000 g of sodium dihydrogen phosphate and 1.186 g of disodium hydrogen phosphate in 500 ml of distilled water, 1.00 ml of a substrate solution prepared by dissolving 32.7 mg of L-DOPA in 200 ml of distilled water, and 0.10 ml of a test solution prepared by dissolving the test compound in dimethyl sulfoxide were mixed together. • (2) 0.10 ml of an enzyme solution prepared by dissolving 3.0 mg (2400 units; manufactured by Sigma Corporation) of mushroom tyrosinase in 7.0 ml of distilled water was added to the solution prepared in (1), and the whole was stirred for 15 seconds. The resulting solution was maintained at 25° C., and the absorbance at 475 nm was measured one minute and 45 seconds later and 2 minutes and 45 seconds later. • (3) The test operations in the above (1) and (2) were conducted three times for the individual test compounds and blank test (only dimethyl sulfoxide), and the resulting numeric value was inserted in the following calculation formula and a mean value thereof was regarded as a tyrosinase activity inhibition ratio (%). Tyrosinase activity inhibition ratio (%)=[(T^1−T^2)/T^1]×100 • T^1=difference in absorbance of solution with addition of no test compound between 2 minutes and 45 seconds later and one minute and 45 seconds later • T^2=difference in absorbance of solution with addition of test compound was added between 2 minutes and 45 seconds later and one minute and 45 seconds later
(§1) Using the compound 40 obtained in Example 24 and arbutin (manufactured by Tokyo Kasei Kogyo Co., Ltd.) as a comparative control, a tyrosinase activity inhibition test was carried out using L-dopa as a substrate. The test procedure was in accordance with Test Example 1.

mushroom tyrosinase [2] = test: Tyrosinase activity inhibition test using L-dopa as substrate (Test Examples 3 to 6, microplate reader, 490 nm); format: biochemical
Experimental: Using the compound 37 obtained in Example 21, the compound 38 obtained in Example 22, the compound 39 obtained in Example 23, and arbutin (manufactured by Tokyo Kasei Kogyo Co., Ltd.) as a comparative control, a tyrosinase activity inhibition test was carried out using L-dopa as a substrate.
The specific test procedures are as follows. • (1) 72 μl of a phosphate buffer prepared by dissolving 1.000 g of sodium dihydrogen phosphate and 1.186 g of disodium hydrogen phosphate in 500 ml of distilled water, 80 μl of a substrate solution prepared by dissolving 32.7 mg of L-DOPA in 200 ml of distilled water, and 8 μl of a test solution prepared by dissolving the test compound in dimethyl sulfoxide were mixed together. • (2) 80 μl of an enzyme solution prepared by dissolving 3.0 mg (2400 units; manufactured by Sigma Corporation) of mushroom tyrosinase in 7.0 ml of distilled water and diluting the solution with the above phosphate buffer so as to make it five times in amount was added to the solution prepared in (1), and the whole was stirred for 15 seconds. The resulting solution was maintained at 25° C., and the absorbance at 490 nm was measured by a microplate reader one minute and 45 seconds later and 2 minutes and 45 seconds later. • (3) The test operations in the above (1) and (2) were conducted four times for the individual test compounds and blank test (only dimethyl sulfoxide), and the resulting numeric value was inserted in the following calculation formula and a mean value thereof was regarded as a tyrosinase activity inhibition ratio (%). Tyrosinase activity inhibition ratio (%)=[(T^1−T^2)/T^1]×100 • T^1=difference in absorbance of solution with addition of no test compound between 2 minutes and 45 seconds later and one minute and 45 seconds later • T^2=difference in absorbance of solution with addition of test compound was added between 2 minutes and 45 seconds later and one minute and 45 seconds later
as §1, with “42” for “40”, “26, the compound 45 obtained in Example 29, the compound 46 obtained in Example 30,” for “24”, “3.” for “1.”
as §1, with “34” for “40”, “18, the compound 47 obtained in Example 31,” for “24”, “3.” for “1.”
Using the compound 48 obtained in Example 32 and arbutin (manufactured by Tokyo Kasei Kogyo Co., Ltd.) as a comparative control, a tyrosinase activity inhibition test was carried out using L-dopa as a substrate. The test procedure was in accordance with Test Example 3.

[3] = target: T1, hyaluronic acid-degrading enzyme (derived from bovine testicles, Type IV-S) (Bos taurus, UniProt Q2YDK3); test: Hyaluronic acid-degrading enzyme activity inhibition test; format: biochemical
T1 construct: derived from bovine testicles manufactured by Sigma Corporation, Type IV-S; purchased Sigma Corporation Type IV-S; host or cells: bovine testicles
T1 sequence (Q2YDK3 36-553): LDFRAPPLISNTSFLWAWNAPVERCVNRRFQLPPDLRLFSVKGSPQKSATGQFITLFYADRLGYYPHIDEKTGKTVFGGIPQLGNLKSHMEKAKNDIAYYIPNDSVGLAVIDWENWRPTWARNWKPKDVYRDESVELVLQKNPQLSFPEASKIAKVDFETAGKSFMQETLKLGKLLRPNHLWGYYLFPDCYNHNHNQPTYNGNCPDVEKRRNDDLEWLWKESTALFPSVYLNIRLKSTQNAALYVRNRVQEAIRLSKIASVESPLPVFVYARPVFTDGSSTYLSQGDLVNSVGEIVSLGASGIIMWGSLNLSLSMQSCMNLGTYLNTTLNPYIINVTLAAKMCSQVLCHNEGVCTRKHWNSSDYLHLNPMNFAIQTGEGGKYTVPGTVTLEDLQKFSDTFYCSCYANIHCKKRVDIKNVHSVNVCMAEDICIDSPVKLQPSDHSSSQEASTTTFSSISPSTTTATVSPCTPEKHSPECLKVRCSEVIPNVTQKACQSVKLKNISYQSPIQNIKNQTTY
Experimental: Using the compound 7 obtained in Example 2, the compound 34, and magnesium ascorbate phosphate as a comparative control, a hyaluronic acid-degrading enzyme activity inhibition test was carried out.
First, the following solutions shown in A to H were each prepared. • A: 0.1M acetate buffer solution was prepared by dissolving 0.60 g of acetic acid in 100 ml of distilled water. • B: A hyaluronidase solution was prepared by dissolving 7.2 mg of a hyaluronic acid-degrading enzyme (derived from bovine testicles manufactured by Sigma Corporation, Type IV-S) into 3.0 ml of the acetate buffer (prepared in the above A). • C: An activator solution was prepared by dissolving 1.0 mg of compound 48/80 (a hyaluronidase activator manufactured by Sigma Corporation) into 10.0 ml of the acetate buffer (prepared in the above A). • D: A hyaluronic acid solution was prepared by dissolving 12.0 mg of potassium hyaluronate (manufactured by Wako Pure Chemical Industries, Ltd.) into 15.0 ml of the acetate buffer (prepared in the above A). • E: A 0.4N sodium hydroxide aqueous solution was prepared by dissolving 1.60 g of sodium hydroxide into 100 ml of distilled water. • F: After 4.95 g of boric acid was dissolved into 50 ml of distilled water, a 1N sodium hydroxide aqueous solution was added until pH reached 9.1. Subsequently, the whole amount was made 100 ml by adding distilled water. • G: 1.0 g of p-dimethylaminobenzaldehyde, 1.25 ml of 10N hydrochloric acid, and 8.75 ml of acetic acid were mixed. The solution was used after the whole amount was made 100 ml by adding acetic acid immediately before use. • H: Each test compound was dissolved in the acetate buffer (prepared in the above A) so the final test concentration became 0.5 mg/ml and 1.0 mg/ml.
Next, the experimental operation was carried out with the procedures shown in the following (1) to (8).
(1) 0.2 ml of the test compound solution (prepared in the above H) and 0.1 ml of the hyaluronic acid-degrading enzyme solution (prepared in the B) were mixed and the whole was incubated at 37° C. for 20 minutes.
(2) To the above reaction solution was added 0.2 ml of the activator solution (prepared in the above C) and the whole was incubated at 37° C. for 20 minutes.
(3) To the above reaction solution was added 0.5 ml of the hyaluronic acid solution (prepared in the above D), and the whole was incubated at 37° C. for 40 minutes.
(4) To the above reaction solution was added 0.2 ml of the 0.4N sodium hydroxide aqueous solution (prepared in the above E), and the whole was cooled in an ice bath.
(5) To the above reaction solution was added 0.2 ml of the boric acid solution (prepared in the above F), and the whole was heated at 100° C. for 3 minutes.
(6) The above reaction solution was cooled in an ice bath.
(7) To the above reaction solution was added 3.0 ml of the p-dimethylaminobenzaldehyde solution (prepared in the above G), and the whole was incubated at 37° C. for 20 minutes.
(8) Absorbance of the reaction solution at 585 nm was measured using a spectrophotometer.
The above experimental operations were repeated three times, and the resulting numeric value was inserted in the following calculation formula and a mean value thereof was regarded as a hyaluronic acid-degrading enzyme activity inhibition ratio (%). Hyaluronic acid-degrading enzyme activity inhibition ratio (%)=(A−B)/A×100
A=absorbance obtained at the time when operation was carried out with addition of no test compound
B=absorbance obtained at the time when operation was carried out with addition of test compound
The compounds of the invention and magnesium ascorbate phosphate were each used in an enzymatic reaction solution in amounts of 0.1 mg/ml, 0.2 mg/ml, and 0.4 mg/ml, and the results were shown in Table 7 (since the compound 7 was not dissolved in a concentration of 0.4 mg/ml, the test was not carried out).

[4] = Test of scavenging DPPH radical (Test Example 9, microplate reader, 540 nm); conditions: final concentration of 25 μg/mL; 20 minutes, room temperature
Text: Using the compound 36 obtained in Example 20, the compound 37 obtained in Example 21, the compound 38 obtained in Example 22, the compound 39 obtained in Example 23, the compound 40 obtained in Example 24, the compound 42 obtained in Example 26, the compound 45 obtained in Example 29, the compound 46 obtained in Example 30, the compound 48 obtained in Example 32 and, as a comparative control, dl-α-tocopherol (manufactured by Tokyo Kasei Kogyo Co., Ltd.), a test of scavenging DDPH (1,1-diphenyl-2-picrylhydrazyl) radical, a stable radical, was carried out.
100 μl of 800 μM DPPH ethanol solution was added to 80 μl of 100 mM Tris-HCl buffer (pH 7.4) and 20 μl of an ethanol solution of the compound 36 (final concentration of 25 μg/mL), followed by sufficient stirring. After the resulting mixture was allowed to stand in a dark place at room temperature for 20 minutes, the absorbance at 540 nm was measured on a microplate reader (absorbance of the test solution).
The compounds 37, 38, 39, 40, 42, 45, 46, and 48 of the invention as well as dl-α-tocopherol as a known radical scavenger were similarly tested.
As a control, using 80 μl of 100 mM Tris-HCl buffer (pH 7.4), 20 μl of ethanol, and 100 μl of 800 μM DPPH ethanol solution, the same operation was carried out as described above and the absorbance was measured (absorbance of the control solution).
With the individual compounds, the same measurement was repeated four times, and the mean value was inserted in the following formula to calculate a DPPH radical-scavenging ratio. DPPH radical-scavenging ratio (%)=[1−(absorbance of sample solution/absorbance of control solution)]×100

Compound: COC(=O)CCCCCCC(CC(=O)CCc1ccc(O)c(OC)c1)OC (stereo not shown) [Compound 36]
DPPH radical-scavenging ratio (%) [4]: 31.7%

Compound: COc1cc(CCC(O)/C=C/CCCCCCC(=O)O)ccc1O (stereo not shown) [Compound 37]
Tyrosinase activity inhibition ratio (%) (mushroom tyrosinase [2]; 0.5 mg/mL, Table 3): 48.6%
Tyrosinase activity inhibition ratio (%) (mushroom tyrosinase [2]; 1 mg/mL, Table 3): 67.7%
DPPH radical-scavenging ratio (%) [4]: 37.6%

Compound: magnesium ascorbate phosphate [reference compound]
Hyaluronic acid-degrading enzyme activity inhibition ratio (%) ([3]; 0.1 mg/mL): 3.3%
Hyaluronic acid-degrading enzyme activity inhibition ratio (%) ([3]; 0.2 mg/mL): 4.2%
Hyaluronic acid-degrading enzyme activity inhibition ratio (%) ([3]; 0.4 mg/mL): 7.6%

Now from value to compound, other results behind:

Tyrosinase activity inhibition ratio (%) (mushroom tyrosinase [1]; 0.125 mg/mL, Table 2): 23.1%
Tyrosinase activity inhibition ratio (%) (mushroom tyrosinase [1]; 0.25 mg/mL, Table 2): 28.5%
Tyrosinase activity inhibition ratio (%) (mushroom tyrosinase [1]; 0.5 mg/mL in enzymatic reaction solution, Table 1): 36.2%
Tyrosinase activity inhibition ratio (%) (mushroom tyrosinase [1]; 0.5 mg/mL, Table 2): 34.6%
Tyrosinase activity inhibition ratio (%) (mushroom tyrosinase [1]; 1 mg/mL in enzymatic reaction solution, Table 1): 42.2%
Tyrosinase activity inhibition ratio (%) (mushroom tyrosinase [2]; 0.031 mg/mL, Table 4): 10.7%
Tyrosinase activity inhibition ratio (%) (mushroom tyrosinase [2]; 0.063 mg/mL, Table 4): 17.7%
Tyrosinase activity inhibition ratio (%) (mushroom tyrosinase [2]; 0.125 mg/mL, Table 4): 24.7%
Tyrosinase activity inhibition ratio (%) (mushroom tyrosinase [2]; 0.25 mg/mL, Table 6, 0.50 mg/mL): 35.8%
Tyrosinase activity inhibition ratio (%) (mushroom tyrosinase [2]; 0.5 mg/mL, Table 3): 35.0%
Tyrosinase activity inhibition ratio (%) (mushroom tyrosinase [2]; 0.5 mg/mL, Table 6, 0.50 mg/mL): 42.6%
Tyrosinase activity inhibition ratio (%) (mushroom tyrosinase [2]; 1 mg/mL, Table 3): 41.6%
Tyrosinase activity inhibition ratio (%) (mushroom tyrosinase [2]; 1.00 mg/ml, Table 5): 45.6%
Compound: OC[C@H]1O[C@@H](Oc2ccc(O)cc2)[C@H](O)[C@@H](O)[C@@H]1O [Arbutin, arbutin, reference compound]

Tyrosinase activity inhibition ratio (%) (mushroom tyrosinase [2]; 1.00 mg/ml, Table 5): 60.1%
Hyaluronic acid-degrading enzyme activity inhibition ratio (%) ([3]; 0.1 mg/mL): 12.1%
Hyaluronic acid-degrading enzyme activity inhibition ratio (%) ([3]; 0.2 mg/mL): 31.6%
Hyaluronic acid-degrading enzyme activity inhibition ratio (%) ([3]; 0.4 mg/mL): 81.3%
Compound: COc1cc(CCC(=O)CC(O)CCCCCCC(=O)O)ccc1O (stereo not shown) [Compound 34]

Tyrosinase activity inhibition ratio (%) (mushroom tyrosinase [2]; 0.5 mg/mL, Table 3): 51.3%
Tyrosinase activity inhibition ratio (%) (mushroom tyrosinase [2]; 1 mg/mL, Table 3): 75.2%
Compound: COc1cc(CCC(O)CCCCCCCCC(=O)O)ccc1O (stereo not shown) [Compound 39]
DPPH radical-scavenging ratio (%) [4]: 33.8%

Tyrosinase activity inhibition ratio (%) (mushroom tyrosinase [2]; 0.031 mg/mL, Table 4): 14.9%
Tyrosinase activity inhibition ratio (%) (mushroom tyrosinase [2]; 0.063 mg/mL, Table 4): 23.8%
Tyrosinase activity inhibition ratio (%) (mushroom tyrosinase [2]; 0.125 mg/mL, Table 4): 36.9%
Compound: COc1cc(CCC(=O)CCCCCCCCCO)ccc1O [Compound 46]
DPPH radical-scavenging ratio (%) [4]: 39.4%
